Data published in US7332612B2 (Teva Pharmaceutical Industries Ltd., priority 2001, dated 2008).

Text: To obtain Form II in high chemical purity the starting material should also be chemically pure.

CCCCc1nc(Cl)c(CO)n1Cc1ccc(-c2ccccc2-c2nnn[nH]2)cc1.[K] [losartan potassium]
solubility in methanol (methanol, complete dissolution at room temperature): highly soluble | solubility in xylene (xylene, either crystalline or amorphous): low solubility
